Results taken from patent US20230108049A1, “ORAL FAST-DISPERSING DOSAGE FORM OF RIMEGEPANT” (BIOHAVEN PHARMACEUTICAL HOLDING COMPANY LTD., priority 2020, published 2023).

Key:
[1] = Excretion after oral [14C]-rimegepant; type: in vivo, human; details: oral, healthy male subjects
Description: Following oral administration of [^14C]-rimegepant to healthy male subjects, 78% of the total radioactivity was recovered in feces and 24% in urine. Unchanged rimegepant is the major single component in excreted feces (42%) and urine (51%).

Solubility in water = type: physicochemical; details: white to off-white crystalline solid

Structure (SMILES): N[C@@H]1c2cccnc2[C@H](OC(=O)N2CCC(n3c(=O)[nH]c4ncccc43)CC2)CC[C@H]1c1cccc(F)c1F [[^14C]-rimegepant]
- total radioactivity recovered in feces [1]: 78%
- total radioactivity recovered in urine [1]: 24%

Structure (SMILES): N[C@@H]1c2cccnc2[C@H](OC(=O)N2CCC(n3c(=O)[nH]c4ncccc43)CC2)CC[C@H]1c1cccc(F)c1F [rimegepant hemisulfate, (5S,6S,9R)-5-amino-6-(2,3-difluorophenyl)-6,7,8,9-tetrahydro-5H-cyclohepta[b]pyridin-9-yl 4-(2-oxo-2,3-dihydro-1H-imidazo[4,5-b]pyridin-1-yl)-1-piperidinecarboxylate hemisulfate sesquihydrate]
- solubility in water (Solubility in water): slightly soluble in water
